Measured values taken from ChEMBL document CHEMBL4507272 (2021).

Experiments:
[1] = target: Atypical kinase COQ8A, mitochondrial (Homo sapiens) (UniProt Q8NI60); details: Compound concentration 1000.0 nM
[2] = target: ALK tyrosine kinase receptor (Homo sapiens) (UniProt Q9UM73); details: Compound concentration 1000.0 nM
[3] = target: Mitogen-activated protein kinase kinase kinase 5 (Homo sapiens) (UniProt Q99683); details: Compound concentration 1000.0 nM
[4] = target: Tyrosine-protein kinase Blk (Homo sapiens) (UniProt P51451); details: Compound concentration 1000.0 nM
[5] = target: Calcium/calmodulin-dependent protein kinase type 1 (Homo sapiens) (UniProt Q14012); details: Compound concentration 1000.0 nM
[6] = target: Cyclin-dependent kinase 11A (Homo sapiens) (UniProt Q9UQ88); details: Compound concentration 1000.0 nM
[7] = target: Cyclin-dependent kinase 4 (Homo sapiens) (UniProt P11802); details: Compound concentration 1000.0 nM
[8] = target: Cyclin-dependent kinase-like 3 (Homo sapiens) (UniProt Q8IVW4); details: Compound concentration 1000.0 nM
[9] = target: Dual specificity protein kinase CLK1 (Homo sapiens) (UniProt P49759); details: Compound concentration 1000.0 nM
[10] = target: Casein kinase I isoform gamma-1 (Homo sapiens) (UniProt Q9HCP0); details: Compound concentration 1000.0 nM
[11] = target: Casein kinase I isoform gamma-2 (Homo sapiens) (UniProt P78368); details: Compound concentration 1000.0 nM
[12] = target: Death-associated protein kinase 3 (Homo sapiens) (UniProt O43293); details: Compound concentration 1000.0 nM
[13] = target: Serine/threonine-protein kinase DCLK3 (Homo sapiens) (UniProt Q9C098); details: Compound concentration 1000.0 nM
[14] = system: Epidermal growth factor receptor (Homo sapiens), P00533 [L858R]; details: Compound concentration 1000.0 nM
[15] = target: Tyrosine-protein kinase Fer (Homo sapiens) (UniProt P16591); details: Compound concentration 1000.0 nM
[16] = target: Beta-adrenergic receptor kinase 1 (Homo sapiens) (UniProt P25098); details: Compound concentration 1000.0 nM
[17] = target: Glycogen synthase kinase-3 alpha (Homo sapiens) (UniProt P49840); details: Compound concentration 1000.0 nM
[18] = target: Serine/threonine-protein kinase ICK (Homo sapiens) (UniProt Q9UPZ9); details: Compound concentration 1000.0 nM
[19] = system: Mast/stem cell growth factor receptor Kit (Homo sapiens), P10721 [A829P]; details: Compound concentration 1000.0 nM
[20] = target: Mitogen-activated protein kinase kinase kinase 13 (Homo sapiens) (UniProt O43283); details: Compound concentration 1000.0 nM
[21] = target: Dual specificity mitogen-activated protein kinase kinase 3 (Homo sapiens) (UniProt P46734); details: Compound concentration 1000.0 nM
[22] = target: Dual specificity mitogen-activated protein kinase kinase 6 (Homo sapiens) (UniProt P52564); details: Compound concentration 1000.0 nM
[23] = target: Myosin light chain kinase (Homo sapiens) (UniProt Q32MK0); details: Compound concentration 1000.0 nM
[24] = target: Mitogen-activated protein kinase kinase kinase 9 (Homo sapiens) (UniProt P80192); details: Compound concentration 1000.0 nM
[25] = target: Mitogen-activated protein kinase kinase kinase 11 (Homo sapiens) (UniProt Q16584); details: Compound concentration 1000.0 nM
[26] = target: Serine/threonine-protein kinase MRCK beta (Homo sapiens) (UniProt Q9Y5S2); details: Compound concentration 1000.0 nM
[27] = target: Serine/threonine-protein kinase 26 (Homo sapiens) (UniProt Q9P289); details: Compound concentration 1000.0 nM
[28] = target: Myosin light chain kinase family member 4 (Homo sapiens) (UniProt Q86YV6); details: Compound concentration 1000.0 nM
[29] = target: Serine/threonine-protein kinase NIM1 (Homo sapiens) (UniProt Q8IY84); details: Compound concentration 1000.0 nM
[30] = system: Phosphatidylinositol 4,5-bisphosphate 3-kinase catalytic subunit alpha isoform (Homo sapiens), P42336 [H1047Y]; details: Compound concentration 1000.0 nM
[31] = target: Serine/threonine-protein kinase pim-1 (Homo sapiens) (UniProt P11309); details: Compound concentration 1000.0 nM
[32] = target: Serine/threonine-protein kinase PLK1 (Homo sapiens) (UniProt P53350); details: Compound concentration 1000.0 nM
[33] = target: Protein kinase C epsilon type (Homo sapiens) (UniProt Q02156); details: Compound concentration 1000.0 nM
[34] = target: cGMP-dependent protein kinase 2 (Homo sapiens) (UniProt Q13237); details: Compound concentration 1000.0 nM
[35] = system: Proto-oncogene tyrosine-protein kinase receptor Ret (Homo sapiens), P07949 [V804L]; details: Compound concentration 1000.0 nM
[36] = target: Serine/threonine-protein kinase RIO3 (Homo sapiens) (UniProt O14730); details: Compound concentration 1000.0 nM
[37] = target: Serine/threonine-protein kinase Sgk3 (Homo sapiens) (UniProt Q96BR1); details: Compound concentration 1000.0 nM
[38] = target: Serine/threonine-protein kinase SIK1 (Homo sapiens) (UniProt P57059); details: Compound concentration 1000.0 nM
[39] = target: SRSF protein kinase 3 (Homo sapiens) (UniProt Q9UPE1); details: Compound concentration 1000.0 nM
[40] = target: Activated CDC42 kinase 1 (Homo sapiens) (UniProt Q07912); details: Compound concentration 1000.0 nM
[41] = target: Non-receptor tyrosine-protein kinase TYK2 (Homo sapiens) (UniProt P29597); details: Compound concentration 1000.0 nM
[42] = target: Phosphatidylinositol 3-kinase catalytic subunit type 3 (Homo sapiens) (UniProt Q8NEB9); details: Compound concentration 1000.0 nM
[43] = target: 5-hydroxytryptamine receptor 6 (Homo sapiens) (UniProt P50406); details: Compound concentration 10.0 uM
[44] = target: Histamine H4 receptor (Homo sapiens) (UniProt Q9H3N8); details: Compound concentration 10.0 uM
[45] = target: Muscarinic acetylcholine receptor M4 (Homo sapiens) (UniProt P08173); details: Compound concentration 10.0 uM

Myosin light chain kinase (Homo sapiens), sequence (Q32MK0 whole entry): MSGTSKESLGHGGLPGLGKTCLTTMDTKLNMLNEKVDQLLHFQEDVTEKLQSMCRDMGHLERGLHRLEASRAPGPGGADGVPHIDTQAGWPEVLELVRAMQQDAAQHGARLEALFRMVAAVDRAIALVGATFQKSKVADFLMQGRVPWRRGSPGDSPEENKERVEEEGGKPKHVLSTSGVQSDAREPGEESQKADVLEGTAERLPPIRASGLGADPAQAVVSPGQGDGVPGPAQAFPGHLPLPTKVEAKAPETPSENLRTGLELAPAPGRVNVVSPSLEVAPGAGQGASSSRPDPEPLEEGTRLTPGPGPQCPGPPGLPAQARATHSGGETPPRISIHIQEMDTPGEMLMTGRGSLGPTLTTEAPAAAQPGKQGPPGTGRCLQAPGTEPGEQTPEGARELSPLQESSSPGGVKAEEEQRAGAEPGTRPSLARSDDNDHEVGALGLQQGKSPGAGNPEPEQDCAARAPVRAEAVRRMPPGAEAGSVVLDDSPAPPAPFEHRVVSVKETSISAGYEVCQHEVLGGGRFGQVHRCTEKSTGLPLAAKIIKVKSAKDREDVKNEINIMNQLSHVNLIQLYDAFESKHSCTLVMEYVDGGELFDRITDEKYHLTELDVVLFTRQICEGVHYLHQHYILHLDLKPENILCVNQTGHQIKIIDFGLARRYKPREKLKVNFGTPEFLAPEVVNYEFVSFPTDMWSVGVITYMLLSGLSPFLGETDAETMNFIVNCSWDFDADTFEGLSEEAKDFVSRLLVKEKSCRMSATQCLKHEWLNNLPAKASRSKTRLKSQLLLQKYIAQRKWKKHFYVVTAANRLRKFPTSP
Serine/threonine-protein kinase ICK (Homo sapiens), sequence (Q9UPZ9 whole entry): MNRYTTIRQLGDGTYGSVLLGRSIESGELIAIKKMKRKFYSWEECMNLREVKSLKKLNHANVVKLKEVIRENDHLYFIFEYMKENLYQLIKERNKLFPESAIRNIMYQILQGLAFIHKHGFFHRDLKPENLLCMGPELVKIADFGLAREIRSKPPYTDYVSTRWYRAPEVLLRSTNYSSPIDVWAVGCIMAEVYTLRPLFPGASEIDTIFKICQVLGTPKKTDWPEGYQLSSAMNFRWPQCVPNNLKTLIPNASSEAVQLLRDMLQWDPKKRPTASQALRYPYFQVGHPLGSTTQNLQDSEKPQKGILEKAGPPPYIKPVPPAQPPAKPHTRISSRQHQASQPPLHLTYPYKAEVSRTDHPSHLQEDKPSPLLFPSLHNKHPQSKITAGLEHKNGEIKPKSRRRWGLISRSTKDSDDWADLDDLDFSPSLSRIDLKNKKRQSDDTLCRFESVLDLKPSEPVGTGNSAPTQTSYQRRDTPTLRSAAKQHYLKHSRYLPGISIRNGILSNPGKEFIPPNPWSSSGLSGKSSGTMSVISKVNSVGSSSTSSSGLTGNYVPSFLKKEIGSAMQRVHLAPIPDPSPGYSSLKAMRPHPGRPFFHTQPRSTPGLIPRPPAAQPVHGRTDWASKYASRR
Myosin light chain kinase family member 4 (Homo sapiens), sequence (Q86YV6 whole entry): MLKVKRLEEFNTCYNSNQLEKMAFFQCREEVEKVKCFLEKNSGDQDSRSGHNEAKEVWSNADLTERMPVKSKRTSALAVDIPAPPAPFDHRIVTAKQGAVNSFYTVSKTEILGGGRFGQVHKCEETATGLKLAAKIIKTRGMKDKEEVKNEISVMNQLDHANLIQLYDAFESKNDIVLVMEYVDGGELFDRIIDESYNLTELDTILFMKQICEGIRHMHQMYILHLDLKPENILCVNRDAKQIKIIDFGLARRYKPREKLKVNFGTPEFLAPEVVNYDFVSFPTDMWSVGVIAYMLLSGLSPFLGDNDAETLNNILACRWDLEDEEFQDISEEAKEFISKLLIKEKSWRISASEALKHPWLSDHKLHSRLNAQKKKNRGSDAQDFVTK
ALK tyrosine kinase receptor (Homo sapiens), sequence (Q9UM73 19-1620 limits assumed): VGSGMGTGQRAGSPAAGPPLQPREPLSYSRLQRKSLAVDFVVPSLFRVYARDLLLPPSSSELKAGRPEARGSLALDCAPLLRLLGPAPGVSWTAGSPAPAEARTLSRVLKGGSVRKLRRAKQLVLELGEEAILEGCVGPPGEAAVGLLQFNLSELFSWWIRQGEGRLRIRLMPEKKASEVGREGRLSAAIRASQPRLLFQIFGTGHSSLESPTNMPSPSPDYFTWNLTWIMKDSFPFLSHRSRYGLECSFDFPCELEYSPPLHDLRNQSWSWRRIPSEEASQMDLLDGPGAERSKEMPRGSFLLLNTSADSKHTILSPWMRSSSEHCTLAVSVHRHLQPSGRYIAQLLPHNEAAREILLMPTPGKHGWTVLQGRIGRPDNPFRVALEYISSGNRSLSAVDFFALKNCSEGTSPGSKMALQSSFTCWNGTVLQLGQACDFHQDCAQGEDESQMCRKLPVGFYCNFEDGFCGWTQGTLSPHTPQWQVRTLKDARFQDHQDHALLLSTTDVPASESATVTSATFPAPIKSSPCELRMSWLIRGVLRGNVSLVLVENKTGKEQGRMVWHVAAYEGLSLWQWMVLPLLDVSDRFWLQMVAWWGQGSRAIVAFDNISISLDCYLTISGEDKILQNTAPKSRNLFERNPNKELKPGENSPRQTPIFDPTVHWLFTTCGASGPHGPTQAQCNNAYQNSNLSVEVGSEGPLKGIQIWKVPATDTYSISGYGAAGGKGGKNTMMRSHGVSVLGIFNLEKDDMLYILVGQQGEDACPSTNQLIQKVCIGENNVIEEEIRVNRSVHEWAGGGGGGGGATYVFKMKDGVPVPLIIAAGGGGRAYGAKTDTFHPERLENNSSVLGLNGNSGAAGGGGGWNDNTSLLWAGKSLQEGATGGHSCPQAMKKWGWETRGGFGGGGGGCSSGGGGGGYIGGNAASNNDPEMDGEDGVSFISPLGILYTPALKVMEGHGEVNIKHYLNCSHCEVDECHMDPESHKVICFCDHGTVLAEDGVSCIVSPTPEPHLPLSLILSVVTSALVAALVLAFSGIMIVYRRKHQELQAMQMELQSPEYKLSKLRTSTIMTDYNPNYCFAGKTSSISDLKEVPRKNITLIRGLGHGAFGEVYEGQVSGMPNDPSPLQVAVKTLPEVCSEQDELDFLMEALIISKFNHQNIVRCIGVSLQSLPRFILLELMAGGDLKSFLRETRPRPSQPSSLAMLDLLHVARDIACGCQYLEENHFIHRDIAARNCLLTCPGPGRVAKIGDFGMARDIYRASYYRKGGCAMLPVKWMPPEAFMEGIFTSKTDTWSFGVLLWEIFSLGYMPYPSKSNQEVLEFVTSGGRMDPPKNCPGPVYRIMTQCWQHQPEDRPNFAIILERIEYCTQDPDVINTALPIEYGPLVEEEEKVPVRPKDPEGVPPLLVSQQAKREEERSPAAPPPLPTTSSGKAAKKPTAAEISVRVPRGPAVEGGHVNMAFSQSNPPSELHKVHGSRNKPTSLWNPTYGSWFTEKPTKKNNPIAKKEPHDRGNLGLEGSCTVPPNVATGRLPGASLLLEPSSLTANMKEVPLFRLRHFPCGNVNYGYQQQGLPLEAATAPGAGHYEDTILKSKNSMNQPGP
Mitogen-activated protein kinase kinase kinase 9 (Homo sapiens), sequence (P80192 whole entry, looked up): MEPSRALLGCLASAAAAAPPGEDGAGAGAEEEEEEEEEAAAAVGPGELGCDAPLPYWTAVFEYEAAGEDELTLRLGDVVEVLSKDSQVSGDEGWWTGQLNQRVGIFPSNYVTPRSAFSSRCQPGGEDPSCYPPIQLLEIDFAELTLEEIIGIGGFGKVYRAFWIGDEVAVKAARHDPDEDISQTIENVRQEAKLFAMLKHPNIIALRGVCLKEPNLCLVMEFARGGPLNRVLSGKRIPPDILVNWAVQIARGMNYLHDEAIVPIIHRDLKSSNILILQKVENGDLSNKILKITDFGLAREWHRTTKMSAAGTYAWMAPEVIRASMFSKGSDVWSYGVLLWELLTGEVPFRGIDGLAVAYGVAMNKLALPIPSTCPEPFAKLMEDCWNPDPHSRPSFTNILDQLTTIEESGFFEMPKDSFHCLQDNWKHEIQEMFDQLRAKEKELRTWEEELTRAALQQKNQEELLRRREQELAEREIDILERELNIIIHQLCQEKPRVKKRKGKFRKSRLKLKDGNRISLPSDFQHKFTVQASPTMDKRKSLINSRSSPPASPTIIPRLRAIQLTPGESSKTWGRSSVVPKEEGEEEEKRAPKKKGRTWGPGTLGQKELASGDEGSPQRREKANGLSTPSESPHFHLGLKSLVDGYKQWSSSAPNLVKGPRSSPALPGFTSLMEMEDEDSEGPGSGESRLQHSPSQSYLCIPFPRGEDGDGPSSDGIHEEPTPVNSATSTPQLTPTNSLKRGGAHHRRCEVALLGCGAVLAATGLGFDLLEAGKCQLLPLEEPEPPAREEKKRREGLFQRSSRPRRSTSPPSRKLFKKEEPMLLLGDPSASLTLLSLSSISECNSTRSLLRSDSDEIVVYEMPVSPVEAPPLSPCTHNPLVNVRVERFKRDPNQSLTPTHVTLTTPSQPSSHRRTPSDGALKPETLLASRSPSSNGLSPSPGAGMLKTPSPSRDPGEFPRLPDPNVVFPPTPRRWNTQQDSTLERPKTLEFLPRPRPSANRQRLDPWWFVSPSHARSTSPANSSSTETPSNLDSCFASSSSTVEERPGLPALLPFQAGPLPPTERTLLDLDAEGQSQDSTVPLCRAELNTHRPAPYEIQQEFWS
Dual specificity mitogen-activated protein kinase kinase 3 (Homo sapiens), sequence (P46734 whole entry): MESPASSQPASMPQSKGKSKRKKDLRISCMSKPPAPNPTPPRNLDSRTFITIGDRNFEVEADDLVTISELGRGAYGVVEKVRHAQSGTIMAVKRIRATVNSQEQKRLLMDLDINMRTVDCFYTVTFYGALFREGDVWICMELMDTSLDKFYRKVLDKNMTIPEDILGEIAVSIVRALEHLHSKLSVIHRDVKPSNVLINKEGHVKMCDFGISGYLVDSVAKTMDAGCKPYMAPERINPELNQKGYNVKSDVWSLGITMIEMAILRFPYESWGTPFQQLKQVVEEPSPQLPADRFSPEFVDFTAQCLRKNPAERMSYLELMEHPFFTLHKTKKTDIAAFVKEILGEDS

CC(=O)C1=C(C)N(c2cccc(C(F)(F)F)c2)C(=O)N[C@@H]1c1ccc(C#N)nc1 [BAY-678]
inactive: residual activity [1] 100% | residual activity [2] 100% | residual activity [3] 94.8% | residual activity [4] 95.8% | residual activity [5] 86.7% | residual activity [6] 95.7% | residual activity [7] 100% | residual activity [8] 98.5% | residual activity [9] 100% | residual activity [10] 100% | residual activity [11] 94.6% | residual activity [12] 83.8% | residual activity [13] 53.9% | residual activity [14] 80.8% | residual activity [15] 96.9% | residual activity [16] 89% | residual activity [17] 95% | residual activity [18] 100% | residual activity [19] 80.8% | residual activity [20] 92.4% | residual activity [21] 95.2% | residual activity [22] 94.6% | residual activity [23] 100% | residual activity [24] 94% | residual activity [25] 100% | residual activity [26] 100% | residual activity [27] 100% | residual activity [28] 100% | residual activity [29] 83.5% | residual activity [30] 87.6% | residual activity [31] 100% | residual activity [32] 100% | residual activity [33] 73.9% | residual activity [34] 100% | residual activity [35] 97.4% | residual activity [36] 100% | residual activity [37] 100% | residual activity [38] 100% | residual activity [39] 100% | residual activity [40] 78.6% | residual activity [41] 91.3% | residual activity [42] 100% | inhibition [43] -6.02% | inhibition [44] 25.9% | inhibition [45] -6.72%
